Counter-ions that a name gives are not always drawn.
Test system: MLO-Y4 osteocytes
Test: High-throughput drug screening of primary cilia length and incidence
Format: cell-based
Conditions: 10 μM, 16 hours, triplicate; normalized to vehicle control; standard deviation away from the population average
Protocol: MLO-Y4 osteocytes were maintained on collagen I-coated dishes in MEMα (Life_Technologies) supplemented with 5% fetal bovine serum (FBS), 5% calf serum (CS), and 1% penicillin/streptomycin (P/S) at 37° C. and 5% CO2. Osteocytes were then seeded onto 384-well collagen-coated plates for 72 hours before fixation. […] These libraries include Tocris, Sigma LOPAC, Selleck Chemical, Prestwick, and Spectrum commercially available compound libraries. All cell seeding and plate handling was performed with the Perkin Elmer cell:explorer workstation.
Cells were fixed in 4% paraformaldehyde and permeabilized with 0.1% Triton-X 100 (Sigma). 10% goat serum (vendor) was used for blocking. Cilia were stained using a monoclonal antibody against acetylated α-tubulin (1:20) from a C3B9 hybridoma cell line, and visualized with A F488 (1:1000, ThermoFisher). Nuclei were visualized with Hoechst. Cells were imaged using a GE INCell 2000 high-throughput imager at 40× magnification. 4 fields of view were taken per well.
Each pair of nuclei and cilia images was first analyzed individually, then the entire population was examined to evaluate each compound's effect on cilia length and incidence. A custom MATLAB script was developed to perform all image analysis. This script first utilizes an enhanced implementation of a watershed transform, which is a segmentation tool which enables detection of similarly shaped overlapping particles in noisy images by the procedural whittling down of pixels found close to the edge of such particles. The augmentation of the algorithm incorporates thresholding for noise removal based on signal intensity and object size, nuclei dilation to exclude non-cellular artifacts, as well as skeletonization of cilia to quantify length. The results of the analysis are number of nuclei, number of cilia, and average cilia length in each image.
Compounds were selected based on deviation from the population mean. Each well was normalized to vehicle control images on each plate, allowing the establishment of a normalized population mean. Hits were chosen based on compounds whose triplicate mean was furthest (based on standard deviation away) from the population mean. […] Compounds were classified based on mechanism of action.
To identify compounds that modulate primary cilia formation a high-throughput platform was developed to automate cell culture, staining, imaging, and analysis, as shown in schematic form in FIG. 18. […] Cells were cultured on 384-well plates, and treated with small molecules with known biologic activity, enabling classification of mechanisms of action. Drug treatment was applied for 16 hours at 10 μM concentration, performed in triplicate, before fixation and immunostaining of primary cilia. Cells were then imaged using the GE INCell 2000 High Content Analyzer, capturing 4 fields of view per well at 40× magnification. Additionally, each plate contains 8 wells of DMSO vehicle control.
A MATLAB script was developed to detect and analyze changes in ciliogenesis. […] A representative exemplary image (FIG. 19A) is cropped to better display features, scale bar represents 30 μm. A custom MATLAB script was used to identify nuclei and cilia for analysis (FIG. 19B). […] Objects are further filtered based on size and signal intensity.
Cilia length and incidence for each field of view were normalized to vehicle control on that individual plate. This allowed development of a normalized population average and standard deviation. […] To control for toxic effects only small molecules with at least 40% viability, based on number of nuclei versus control, were selected as hits. Furthermore, compounds repeated between multiple libraries eliciting the same effect on cilia length or incidence were excluded, such that only one of the repeated compounds was selected as a hit.

Compound	Average Incidence SD Away [SD]	Average Length SD Away [SD]
COc1cc(C(C)=O)ccc1OCCCN1CCC(c2noc3cc(F)ccc23)CC1 [Iloperidone (Fanapt), Iloperidone]	1.775	–
CCOC(=O)C1=C(C)NC(C)=C(C(=O)OC)C1c1cccc([N+](=O)[O-])c1 (stereo not drawn) [Nitrendipine]	1.542	–
CCCCC(=O)N(Cc1ccc(-c2ccccc2-c2nnn[nH]2)cc1)[C@H](C(=O)O)C(C)C [Valsartan (Diovan), Valsartan]	1.648	–
Cc1cccc(C)c1NC(=O)CN1CCCC1=O [Nefiracetam (Translon), Nefiracetam]	1.552	–
Cc1cc(NS(=O)(=O)c2ccc(N)cc2)no1 [Sulfamethoxazole]	1.767	–
CC(=O)O[C@H]1C[C@@H](OC(C)=O)C(C)(C)[C@@H]2C[C@@H](OC(C)=O)[C@@]3(C)C4=CC(=O)O[C@@H](c5ccoc5)[C@]4(C)CC[C@@H]3[C@@]12C [DEOXYKHIVORIN]	–	1.681
NC[C@H]1CC[C@H](C(=O)O)CC1 [Tranexamic acid (Transamin), Tranexamic acid]	1.582	–
COc1ccc2c(c1OC)OC[C@@H](c1ccc(OC)c(OC)c1OC)C2 [DUARTIN DIMETHYL ETHER]	–	2.07
CC(C(=O)[O-])c1cccc(Oc2ccccc2)c1.CC(C(=O)[O-])c1cccc(Oc2ccccc2)c1.[Ca+2] (stereo not drawn) [Fenoprofen calcium]	3.368	–
O=C1Nc2ccccc2/C1=C1/Nc2ccccc2/C1=N\O [Indirubin-3′-oxime]	–	2.475
CN1CCN2c3ncccc3Cc3ccccc3C2C1 (stereo not drawn) [Mirtazapine (Remeron Avanza), Mirtazapine]	1.681	–
CCCCN1CCCCC1C(=O)Nc1c(C)cccc1C (stereo not drawn) [Bupivacaine hydrochloride (Marcain), Bupivacaine hydrochloride]	1.827	–
CC(=O)O[C@@]12CO[C@@H]1C[C@H](O)[C@@]1(C)C(=O)[C@H](O)C3=C(C)[C@@H](OC(=O)[C@H](O)[C@@H](NC(=O)OC(C)(C)C)c4ccccc4)C[C@@](O)([C@@H](OC(=O)c4ccccc4)[C@H]21)C3(C)C [Docetaxel]	–	3.416
O=C1NC(=O)C(c2ccccc2[N+](=O)[O-])=C1Nc1ccc(O)c(Cl)c1 [SB 415286]	–	2.05
CC(=O)Nc1ccccc1 [Acetanilide (Antifebrin), Acetanilide]	1.696	–
CC(C)(C)[N+]([O-])=Cc1ccc(S(=O)(=O)[O-])cc1S(=O)(=O)[O-].[Na+].[Na+] [NXY 059]	1.838	–
C=CCN1C[C@H](C)N([C@H](c2ccc(C(=O)N(CC)CC)cc2)c2cccc(O)c2)C[C@H]1C [BW 373U86]	–	1.553
C[C@@H](NC(=O)/C(C#N)=C/c1ccc(O)c(O)c1)c1ccccc1 (single isomer, unassigned) [Tyrphostin B44 (−) enantiomer]	–	1.877
CCCCc1oc2ccccc2c1C(=O)c1cc(I)c(OCCN(CC)CC)c(I)c1 [Amiodarone HCl]	3.38	–
CC[C@@]1(O)C(=O)OCc2c1cc1n(c2=O)Cc2cc3cc(O)ccc3nc2-1 [10-HYDROXYCAMPTOTHECIN]	–	2.11
c1ccc(-c2[nH]ncc2-c2ccnc3ccccc23)nc1 [LY 364947]	1.591	–
O=C(C[S+]([O-])Cc1ccco1)NC/C=C\COc1cc(CN2CCCCC2)ccn1 (stereo not drawn) [Lafutidine]	1.619	–
Cc1cc(NC(=O)Nc2ccc(N(C)C)cc2)c2cc(F)cc(F)c2n1 [SB 408124]	–	2.398
CCCOc1ccc2nc(NC(=O)OC)[nH]c2c1 [Oxibendazole]	4.084	–

Reference: patent publication US20190015423A1, “REGULATION OF GENE EXPRESSION BY MODULATING PRIMARY CILIA LENGTH” (THE TRUSTEES OF COLUMBIA UNIVERSITY IN THE CITY OF NEW YORK, priority 2016, published 2019)
